Read-outs that look alike come from different tables or passages of the source. Where a SMILES comes first, the peptide text is derived from it.
Key:
[1] = target: T1, gp41 6-HB formation between N36 and C34 (Human immunodeficiency virus type 1 group M subtype B, UniProt P04578); assay: biochemical; format: biochemical, HIV-1; conditions: read-out: IC50, inhibition of 6-HB formation between C34 and N36; N36 1 μM preincubated with peptide 37 °C 30 min, then C34 1 μM; ELISA with mAb NC-1; triplicate
T1 construct: gp41 NHR (“N36”, 546-581); made in house; host or cells: chemical solid-phase FMOC synthesis
Method: Inhibition of gp41 six-helix bundle formation by a testing peptide was determined with a sandwich ELISA described previously. […] A450 was determined by an ELISA reader (Ultra 384, Tecan).

[2] = tested on: preexisting antibodies in sera from HIV-1-infected patients; assay: Sandwich ELISA: cross-reactivity of peptides with preexisting antibodies in HIV-1-infected patients; format: binding, human; conditions: peptide coated at 10 μg/ml, serially diluted sera, 37 °C 1 h, A450
Method: A sandwich ELISA was conducted to determine the cross-reactivity of the peptides with the preexisting antibodies in HIV-1-infected patients. […] The wells were then blocked with 1% gelatin, followed by addition of 50 μl of serially diluted sera from HIV-1-infected patients and incubation at 37 °C for 1 h. Then, HRP-labeled goat-anti-human IgG (Abcam, UK) and TMB were added sequentially. A450 was determined with an ELISA reader (Ultra 384, Tecan).

N36 (gp41 NHR peptide) = target: T2, N36 (gp41 NHR peptide) (Human immunodeficiency virus type 1 group M subtype B, UniProt P04578); assay: CD spectroscopy and thermal midpoint analysis of peptide/N36 complexes; format: physicochemical, HIV-1; conditions: for Tm of complex with N36: CD thermal denaturation at 222 nm, 4 to 98 °C, 5 °C/min, 10 μM in PBS pH 7.2; for α-helix content of complex with N36: CD, peptide/N36 mixture 10 μM in PBS pH 7.2, 4 °C
T2 construct: gp41 NHR (“N36”, 546-581); made in house; host or cells: chemical solid-phase FMOC synthesis
Method: Briefly, each peptide or peptide mixture was dissolved in phosphate-buffered saline (PBS: 50 mM sodium phosphate and 150 mM NaCl, pH 7.2) at the final concentration of 10 μM and incubated at 37 °C for 30 min before cooling down to 4 °C. The CD spectra of each sample were acquired on a Jasco spectropolarimeter (Model J-815, Jasco Inc., Japan) at 4 °C using a 5 nm bandwidth, 0.1 nm resolution, 0.1 cm path length and an average time of 5.0 sec. Spectra were corrected by the subtraction of a blank corresponding to the solvent composition of each sample. Thermal midpoint analysis was used to determine the temperature at which 50% of the 6-HB formed by the CHR and NHR would decompose. It was monitored at 222 nm from 4 °C to 98 °C by applying a thermal gradient of 5 °C/min. The melting curve was smoothed and the midpoint of the thermal unfolding transition (Tm) values was calculated using Jasco software utilities as described above.

[3] = tested on: HIV-1IIIB (subtype B, X4); conditions: read-out: IC50, inhibition of infection by HIV-1IIIB; MT-2 cells, 100 TCID50, p24 ELISA day 4; triplicate, repeated twice
Source text: (§1) Then, the culture supernatants were changed to fresh media. On the fourth day post-infection, culture supernatants were collected for detection of p24 antigen by ELISA. […] Then, the culture supernatants were changed to fresh media. On the fourth day post-infection, the culture supernatants were discarded and fresh media were complemented again. The supernatants were collected on the seventh day post-infection and tested for p24 antigen by ELISA as previously described. The percent inhibition of p24 production was calculated.

HIV-1Bal (subtype B, R5) = conditions: read-out: IC50, inhibition of infection by HIV-1Bal; M7 cells, 100 TCID50, p24 ELISA day 7; triplicate, repeated twice
Source text: as §1

[4] = tested on: HIV-1IIIB (subtype B, X4); assay: Inhibition of HIV-1 IIIB infection by peptides in the presence of sera from HIV-1-infected patients; format: cell-based; conditions: for Fold change of IC50, HPS-1: HPS-1 relative to N; for Fold change of IC50, HPS-2: HPS-2 relative to N; for Fold change of IC50, HPS-3: HPS-3 relative to N; for Fold change of IC50, HPS-4: HPS-4 relative to N; for Fold change of IC50, HPS-5: HPS-5 relative to N; for IC50: MT-2 cells, triplicate, mean ± SD
Method: Inhibition of peptides on HIV-1IIIB (subtype B, X4)infection in the presence of HIV-1-infected patients’ sera was determined as previously described. Briefly, each peptide was mixed with serially diluted serum from an HIV-1-infected patient at room temperature for 30 min. Next, the mixture of peptide/serum and HIV-1 (100 TCID50) were added to MT-2 cells (1 × 10^5/ml) in RPMI 1640 medium containing 10% FBS. After incubation at 37 °C overnight, the culture supernatants were replaced with fresh culture medium.

92TH009 (A/E) = conditions: read-out: IC50 (nM), infection by primary isolate 92TH009 (A/E); primary HIV-1 isolate, subtype A/E
[5] = tested on: T20-resistant HIV-1 variant V38E/N42S; format: cell-based
[6] = intravenous 1 mg/kg, male SD rats, n = 2; plasma by sandwich ELISA; PK Solver
Method: (§2) Four male SD rats weighing approximately 200 g each were obtained from the Shanghai Medical School Animal Center and were used for the half-life assay. […] After injection, blood samples were acquired from rat orbit at several time points (8 and 30 min and 1.5, 3, 6, 9, 12 and 24 h after peptide injection) and placed in clean tubes. […] Then, HRP-labeled rabbit-anti-mouse IgG (Sigma, USA) and TMB were added in order. Absorbance at 450 nm was determined by an ELISA reader (Ultra 384, Tecan). The standard peptide parameters were obtained first. Then, the plasma peptide concentrations were determined as a function of time and the half-life was calculated by using PK Solver for Microsoft Excel to obtain pharmacokinetic parameters.

93IN101 (C) = conditions: read-out: IC50 (nM), infection by primary isolate 93IN101 (C); primary HIV-1 isolate, subtype C
94US_33931N (B) = conditions: read-out: IC50 (nM), infection by primary isolate 94US_33931N (B); primary HIV-1 isolate, subtype B
NP1525 (A/E) = format: cell-based; conditions: primary HIV-1 isolate, subtype A/E; read-out: IC50 (nM), infection by primary isolate NP1525 (A/E)
93BR020 (F) = format: cell-based; conditions: primary HIV-1 isolate, subtype F; read-out: IC50 (nM), infection by primary isolate 93BR020 (F)
[7] = tested on: T20-resistant HIV-1 variant V38A/N42T; format: cell-based
[8] = tested on: T20-resistant HIV-1 variant N42T/N43K; format: cell-based
[9] = tested on: T20-resistant HIV-1 variant V38A; format: cell-based
[10] = tested on: T20-resistant HIV-1 variant V38A/N42D; format: cell-based
92UG029 (A) = conditions: read-out: IC50 (nM), infection by primary isolate 92UG029 (A); primary HIV-1 isolate, subtype A
BCF020 (Group O) = conditions: read-out: IC50 (nM), infection by primary isolate BCF020 (Group O), primary HIV-1 isolate
92UG024 (D) = format: cell-based; conditions: primary HIV-1 isolate, subtype D; read-out: IC50 (nM), infection by primary isolate 92UG024 (D)
in vivo = conditions: male, Sprague-Dawley (SD), rat, plasma, iv, 1 mg/kg
Method: as §2

[11] = in presence of serum of HIV-1-infected patient HPS-1, read-out: IC50 (nM), HIV-1 IIIB infection, HPS-1
[12] = in presence of serum of HIV-1-infected patient HPS-2, read-out: IC50 (nM), HIV-1 IIIB infection, HPS-2
[13] = in presence of serum of HIV-1-infected patient HPS-3, read-out: IC50 (nM), HIV-1 IIIB infection, HPS-3
[14] = in presence of serum of HIV-1-infected patient HPS-4, read-out: IC50 (nM), HIV-1 IIIB infection, HPS-4
[15] = in presence of serum of HIV-1-infected patient HPS-5, read-out: IC50 (nM), HIV-1 IIIB infection, HPS-5

T2 sequence (P04578 546-581): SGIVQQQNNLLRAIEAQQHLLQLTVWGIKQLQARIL
T1 sequence (P04578 546-581): as above

COc1ccc(S(=O)(=O)O)cc1N=Nc1c(S(=O)(=O)O)cc2cc(Nc3nc(Nc4ccccc4)nc(Nc4cc(C)c(N=Nc5cc(S(=O)(=O)O)cc6cc(S(=O)(=O)O)cc(O)c56)cc4OC)n3)ccc2c1O [ADS-J1, reference compound]
IC50 [1]: 2750 nM

CC[C@H](C)[C@H](NC(=O)[C@H](CO)NC(=O)[C@H](CCC(=O)O)NC(=O)[C@H](CCC(=O)O)NC(=O)[C@H](CCC(N)=O)NC(=O)[C@H](CCCCN)NC(=O)[C@H](CCCCN)NC(=O)[C@@H](NC(=O)[C@H](CCC(N)=O)NC(=O)[C@H](CCC(=O)O)NC(=O)[C@H](CCC(=O)O)NC(=O)[C@@H](NC(=O)[C@H](CCCCN)NC(=O)[C@H](CCCCN)NC(=O)[C@@H](NC(=O)[C@H](CC(C)C)NC(=O)[C@H](CCC(=O)O)NC(=O)[C@H](CCC(=O)O)NC(=O)[C@H](CO)NC(=O)[C@H](CCCCN)NC(=O)[C@H](CCCCN)NC(=O)[C@@H](NC(=O)[C@H](CC(C)C)NC(=O)[C@H](CCC(=O)O)NC(=O)[C@H](CCC(=O)O)NC(=O)[C@@H](NC(=O)[C@H](CCC(=O)O)NC(=O)[C@H](CCCNC(=N)N)NC(=O)[C@H](CC(=O)O)NC(=O)[C@H](Cc1c[nH]c2ccccc12)NC(=O)[C@H](CCC(=O)O)NC(=O)[C@H](CCSC)NC(=O)[C@H](Cc1c[nH]c2ccccc12)NC(C)=O)[C@@H](C)CC)[C@@H](C)CC)[C@@H](C)CC)[C@@H](C)CC)[C@@H](C)CC)C(=O)N[C@@H](CCCCN)C(=O)N[C@@H](CCCCN)C(N)=O [AP1] (Ac-WMEWDREIEELIKKSEELIKKIEEQIKKQEESIKK-NH2)
reactivity with antibodies in sera from five HIV-1-infected patients [2]: none of the three artificial peptides AP1, AP2 and AP3 was recognized
Tm of complex with N36 (N36 (gp41 NHR peptide)): 59.6 ^oC
α-helix content of complex with N36 (N36 (gp41 NHR peptide)): 65.36%
IC50 [3]: 86.2 nM
IC50 (HIV-1Bal (subtype B, R5)): 396 nM
Fold change of IC50, HPS-1 [4]: 0.8
Fold change of IC50, HPS-2 [4]: 0.6
Fold change of IC50, HPS-3 [4]: 1.5
Fold change of IC50, HPS-4 [4]: 0.8
Fold change of IC50, HPS-5 [4]: 0.6
IC50 [4, 11]: 87.4 ± 54.8 nM
IC50 [4, 12]: 70.1 ± 44.9 nM
IC50 [4, 13]: 165 ± 26.6 nM
IC50 [4, 14]: 89.5 ± 20.6 nM
IC50 [4, 15]: 68.5 ± 22.6 nM

CC[C@H](C)[C@H](NC(=O)[C@H](CO)NC(=O)[C@H](CCC(=O)O)NC(=O)[C@H](CCC(=O)O)NC(=O)[C@H](CCC(N)=O)NC(=O)[C@H](CCCCN)NC(=O)[C@H](CCCCN)NC(=O)[C@@H](NC(=O)[C@H](CCC(N)=O)NC(=O)[C@H](CCC(=O)O)NC(=O)[C@H](CCC(=O)O)NC(=O)[C@@H](NC(=O)[C@H](CCCCN)NC(=O)[C@H](CCCCN)NC(=O)[C@@H](NC(=O)[C@H](CC(C)C)NC(=O)[C@H](CCC(=O)O)NC(=O)[C@H](CCC(=O)O)NC(=O)[C@H](CO)NC(=O)[C@H](CCCCN)NC(=O)[C@H](CCCCN)NC(=O)[C@@H](NC(=O)[C@H](CC(C)C)NC(=O)[C@H](CCC(=O)O)NC(=O)[C@H](CCC(=O)O)NC(=O)[C@@H](NC(=O)[C@H](CCCCN)NC(=O)[C@H](CCCCN)NC(=O)[C@H](CC(=O)O)NC(=O)[C@H](Cc1c[nH]c2ccccc12)NC(=O)[C@H](CCC(=O)O)NC(=O)[C@H](CCC(=O)O)NC(=O)[C@H](Cc1c[nH]c2ccccc12)NC(C)=O)[C@@H](C)CC)[C@@H](C)CC)[C@@H](C)CC)[C@@H](C)CC)[C@@H](C)CC)C(=O)N[C@@H](CCCCN)C(=O)N[C@@H](CCCCN)C(N)=O [AP2] (Ac-WEEWDKKIEELIKKSEELIKKIEEQIKKQEESIKK-NH2)
reactivity with antibodies in sera from five HIV-1-infected patients [2]: none of the three artificial peptides AP1, AP2 and AP3 was recognized
IC50 (92TH009 (A/E)): 50 ± 4.5 nM
IC50 [5]: 87.4 ± 5.26 nM
Cmax [6]: 667.43 µg/mL
IC50 (93IN101 (C)): 35.6 ± 0.9 nM
IC50 (94US_33931N (B)): 38 ± 12.5 nM
IC50 (NP1525 (A/E)): 65.6 ± 10.9 nM
IC50 (93BR020 (F)): 42.7 ± 1.4 nM
IC50 [7]: 262 ± 5.63 nM
Tm of complex with N36 (N36 (gp41 NHR peptide)): 82.3 ^oC
α-helix content of complex with N36 (N36 (gp41 NHR peptide)): 69.51%
IC50 [8]: 72.7 ± 7.53 nM
IC50 [9]: 41.4 ± 8.65 nM
IC50 [3]: 23.1 nM
IC50 (HIV-1Bal (subtype B, R5)): 50 nM
IC50 [10]: 63.5 ± 6.37 nM
IC50 (92UG029 (A)): 39.9 ± 4.2 nM
IC50 (BCF020 (Group O)): 47.1 ± 2.1 nM
Fold change of IC50, HPS-1 [4]: 0.5
Fold change of IC50, HPS-2 [4]: 0.7
Fold change of IC50, HPS-3 [4]: 1.7
Fold change of IC50, HPS-4 [4]: 0.8
Fold change of IC50, HPS-5 [4]: 1.5
IC50 [4, 11]: 24.3 ± 10.2 nM
IC50 [4, 12]: 30.3 ± 4.2 nM
IC50 [4, 13]: 78.3 ± 8.6 nM
IC50 [4, 14]: 35.1 ± 2.3 nM
IC50 [4, 15]: 69.3 ± 3.2 nM
IC50 (92UG024 (D)): 34.5 ± 2.3 nM
MRT (in vivo): 7.57 h
half-life (in vivo): 5.25 h

Enfuvirtide
IC50 (92TH009 (A/E)): 14.2 ± 12.4 nM
IC50 [5]: > 2000 nM
IC50 (93IN101 (C)): 16.8 ± 6.5 nM
IC50 (94US_33931N (B)): 16.2 ± 2.8 nM
IC50 (NP1525 (A/E)): 29.7 ± 6.9 nM
IC50 (93BR020 (F)): 24.5 ± 3.6 nM
IC50 [7]: > 5000 nM
IC50 [8]: > 2000 nM
IC50 [9]: 943 ± 46.4 nM
IC50 [3]: 13.6 nM
IC50 (HIV-1Bal (subtype B, R5)): 30.2 nM
IC50 [10]: > 2000 nM
IC50 (92UG029 (A)): 8.6 ± 1.7 nM
IC50 (BCF020 (Group O)): 30.8 ± 0.5 nM
IC50 [4, 11]: 128 ± 20.5 nM
IC50 [4, 12]: 134 ± 44.9 nM
IC50 [4, 13]: 157 ± 22 nM
IC50 [4, 14]: > 200 nM
IC50 [4, 15]: > 200 nM
IC50 (92UG024 (D)): 15.5 ± 3.5 nM

Reference: PMC4541410 (Scientific Reports, 2015)
